Reference: BindingDB's records for patent US20250270173 (Gilgamesh Pharmaceuticals, 2025)

biological target: 5-hydroxytryptamine receptor 2A (Homo sapiens, UniProt P28223); test: 5-HT2A Receptor Binding Assay
Sequence (P28223 whole entry): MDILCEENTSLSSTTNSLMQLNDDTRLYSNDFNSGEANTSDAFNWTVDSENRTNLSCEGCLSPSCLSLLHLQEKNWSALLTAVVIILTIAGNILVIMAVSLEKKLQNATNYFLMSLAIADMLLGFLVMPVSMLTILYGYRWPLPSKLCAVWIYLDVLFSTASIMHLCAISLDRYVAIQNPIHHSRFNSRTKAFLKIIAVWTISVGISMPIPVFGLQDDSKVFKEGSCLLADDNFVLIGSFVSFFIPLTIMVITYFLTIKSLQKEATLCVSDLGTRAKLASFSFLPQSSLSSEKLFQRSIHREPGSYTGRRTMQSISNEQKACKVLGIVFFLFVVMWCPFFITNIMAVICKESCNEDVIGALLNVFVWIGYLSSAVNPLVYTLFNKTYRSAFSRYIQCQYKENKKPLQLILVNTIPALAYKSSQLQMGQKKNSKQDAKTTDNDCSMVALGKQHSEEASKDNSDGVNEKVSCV

Row | SMILES | Ki [nM]
1 | COc1cc(C)c(OC)nc1CC(C)N (configuration not stated) [US20250270173, Compound 5] | 1170
2 | COc1cc(Br)c(OC)nc1CC(C)N (configuration not stated) [US20250270173, Compound 6] | 168
3 | COc1cc(C)c(OC)nc1CCN [US20250270173, Compound 8] | 1120
4 | COc1cc(Br)c(OC)nc1CCN [US20250270173, Compound 9] | 99.2
5 | CCCCCc1nc(OC)c(CC(N)CC)cc1OC (configuration not stated) [US20250270173, Compound 11] | 273
6 | CCCCCc1nc(OC)c(CC(N)CC)nc1OC (configuration not stated) [US20250270173, Compound 12] | 693
7 | CCSc1cc(OC)c(CCN)nc1OC [US20250270173, Compound 22] | 82.8
8 | CCSc1cc(OC)c(CC(C)N)nc1OC (configuration not stated) [US20250270173, Compound 23] | 344
9 | CCSc1cc(OC)c(CC(N)CC)nc1OC (configuration not stated) [US20250270173, Compound 24] | 649
10 | COc1cc(C2CC2)c(OC)nc1CCN [US20250270173, Compound 26] | 150
11 | CCCCCCc1cc(OC)c(CCN)nc1OC [US20250270173, Compound 29] | 0.91
12 | CCCc1cc(OC)c(CC(N)CC)nc1OC (configuration not stated) [US20250270173, Compound 37] | 106
